In patent publication US20240336625A1, “SULFONIMIDAMDE COMPOUNDS AND USES THEREOF” (Genentech, Inc., priority 2021, published 2024):
Like-named read-outs stand apart in the source and are kept apart here.

How the values were obtained:
[1] = tested on: NLRP3 dependent inflammasome pathway; experiment: THP-1 ASC-GFP Speck Assay; assay type: cell-based; conditions: THP1-ASC-GFP; THP-1 ASC-GFP cells, LPS primed, 10 μM nigericin
Experimental: Cell Culture: THP-1 ASC-GFP cell line is purchased from Invivogen, San Diego, for inflammasome activation assay. THP-1 ASC-GFP cells stably express a 37.6 kDa ASC::GFP fusion protein that enables monitoring of spec formation by microscopy after activation of NLRP3 dependent inflammasome pathway. Cells are maintained at a density of 600,000 cells/mL in growth media consisting of RPMI 1640, 2 mM L-glutamine, 25 mM HEPES and 10% heat inactivated fetal bovine serum at 37° C. and 5% CO2. Cells are passaged every 3-4 days and used for assays for up to 20 passages.
NLRP3 inflammasome activation assay: THP-1 ASC-GFP cells are collected by centrifuging cells at 800 RPM for 5 minutes. Cell culture supernatant is removed and cells are resuspended in fresh media at density of 1×10^6 cells/mL in assay media consisting of RPMI 1640, 2 mM L-glutamine, 25 mM HEPES and 10% heat inactivated fetal bovine serum.
Phorbol 12-myristate 13-acetate (PMA) (Invivogen, tlrl-pma) is added to the cell suspension at a final concentration of 500 ng/ml and mixed thoroughly. 40,000 cells are added per well of a 384 well plate and differentiated into macrophages overnight at 37° C. and 5% CO2. […]
Imaging ASC-GFP specks: THP-1 ASC-GFP cells are imaged in 488 and Hoechst channels. […] Percentage of cells with a spec is calculated by dividing the number of GFP positive spots by total number of cells.

[2] = tested on: NLRP3 inflammasome pathway; experiment: Human Whole Blood Assay (IL-1β release, LPS + ATP); assay type: cell-based; conditions: read-out: HWB IC90
Experimental: The ability of selected compounds to inhibit IL-1beta production in human blood was assessed in a human whole blood assay with lipopolysaccharide.
Fresh human whole blood (HWB) was obtained from healthy donors. […] At the end of stimulation, the plates were centrifuged 2 min×3000 rpm, and supernatant transferred into fresh plates and stored at −80° C. until IL-1β analysis. IL-1b levels were measured using electrochemiluminescence immunoassay with an anti-IL-1b antibody as a primary detection agent.

hPXR nuclear receptor = biological target: T1, hPXR nuclear receptor (Homo sapiens, UniProt O75469); experiment: PXR Activation Assay; assay type: cell-based; conditions: relative to positive control (rifampicin)
T1 construct: expressed in transfected cells
T1 sequence (O75469 1-434): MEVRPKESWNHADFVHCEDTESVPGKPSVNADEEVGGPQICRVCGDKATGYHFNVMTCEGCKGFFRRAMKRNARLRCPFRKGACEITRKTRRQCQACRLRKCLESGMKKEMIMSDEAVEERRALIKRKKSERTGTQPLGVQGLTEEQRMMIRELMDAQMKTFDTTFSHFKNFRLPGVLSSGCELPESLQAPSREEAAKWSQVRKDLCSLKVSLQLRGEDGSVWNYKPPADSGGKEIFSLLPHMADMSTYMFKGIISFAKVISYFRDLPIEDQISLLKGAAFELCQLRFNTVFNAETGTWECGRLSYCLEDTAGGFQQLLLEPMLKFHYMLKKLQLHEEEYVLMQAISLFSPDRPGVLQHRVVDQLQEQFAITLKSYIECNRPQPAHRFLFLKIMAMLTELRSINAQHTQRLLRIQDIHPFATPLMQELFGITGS
Experimental: Hepatoma cells either expressing an endogenous human […] or transfected with the hPXR nuclear receptor and the corresponding response elements were seeded in a 96-well plate. Twenty-four hours after seeding, the cells were treated with six distinct concentrations of test compounds in duplicate wells, and cells then returned to the incubator for an additional 24 h. At the end of this incubation period, the number of viable cells/well was determined using Promega's Cell Titer Fluor cytotoxicity assay. Following this assay, Promega's ONE-Glo was added to the same wells and reporter gene activity assessed.
Data processed using MS-Excel was provided as the mean (n=2) of the fold receptor activation relative to vehicle-treated cells at each of the six different doses. All activation data was normalized to the number of viable cells/well. Results were also expressed as a percentage of the response given by the appropriate positive control (rifampicin) at a 10 μM dose. EC50 and Emax values were derived for positive controls using nonlinear regression of log dose-response curves.

[3] = Rat Pharmacokinetic (PK) Studies; assay type: in vivo, Sprague-Dawley rats; conditions: male, Sprague-Dawley, plasma; for bioavailability: 1 mg/kg PO vs 0.5 mg/kg IV cassette dose
Experimental: Studies were performed at WuXi AppTech Co., Ltd (Shanghai, P.R. China). Food and water were available ad libitum except for animals that were dosed oral doses in pharmacokinetic (PK) studies, which were fasted overnight before dosing of test compounds. Six male Sprague-Dawley rats, aged 6-9 weeks with body weight of 200-300 g were obtained from Vital River Laboratory Animal Technology Co., Ltd., Beijing, P.R. China and were randomly allocated to two dose groups (3 rats were used for the IV group and 3 rats for the PO group). Animals in Group 1 were given a single IV bolus cassette dose of 0.5 mg/kg of test compounds at a dose volume of 1 mL/kg, formulated in DMSO/PEG400/Water (10/60/30). Animals in Group 2 were given a 1 mg/kg PO cassette dose of test compounds at a dose volume of 1 mL/kg, formulated in 0.5% Methyl cellulose/0.2% Tween 80 (MCT) as a suspension. Blood samples were collected via catheter at the femoral artery into tubes containing K2EDTA as an anticoagulant. Both groups were sampled at 0.033, 0.083, 0.25, 0.5, 1, 2, 4, 8 and 24 hours post-dose for blood. All samples were stored at −80° C. until analysis. The concentration of test compounds in each blood or plasma sample was determined by LC-MS/MS analysis.
PK parameters were calculated by noncompartmental methods as described in Gibaldi and Perrier (1982) using Phoenix™ WinNonlin (Certara, Princeton, NJ) version 8.3.4.295. Parameters are presented as mean±SD. Bioavailability (F) was determined by dividing the dose-normalized area under the plasma concentration-time curve from time 0 extrapolated to infinity (AUCinf) for each animals dosed orally by the dose-normalized mean AUCinf determined from the animals dosed intravenously.

[4] = Homo sapiens, LPS 200 ng/mL, ATP 1.75 mM, IL-1β
[5] = read-out: Rat Half Life (converted)

| SMILES | IC50 [1] [nM] | IC90 [2, 4] [nM] | % PXR activation @ 10 μM (hPXR nuclear receptor) [%] | bioavailability [3] [%] | half-life [3, 5] [h] | IC90 ([2]; Homo sapiens) [nM] | half-life ([3]; read-out: half life) [h] | IC90 ([2]; LPS 200 ng/mL, ATP 1.75 mM, IL-1β) [nM] |
| --- | --- | --- | --- | --- | --- | --- | --- | --- |
| C[C@]1(CO)Cn2ncc([S@](N)(=O)=NC(=O)Nc3c4c(cc5c3CC5)CC4)c2O1 [Compound A, (R,2R)-2-(hydroxymethyl)-2-methyl-N-(tricyclo[6.2.0.0^3,6]deca-1,3(6),7-trien-2-ylcarbamoyl)-2,3-dihydropyrazolo[5,1-b]oxazole-7-sulfonimidamide] | 0.98 |  |  |  |  |  |  |  |
| C[C@]1(CO)Cn2ncc([S@](N)(=O)=NC(=O)Nc3c4c(cc5c3CC5)CC4)c2O1 [Compound 2, (R,2R)-2-(hydroxymethyl)-2-methyl-N′-(tricyclo[6.2.0.0^3,6]deca-1,3(6), 7-trien-2-ylcarbamoyl)-2,3-dihydropyrazolo[5,1-b]oxazole-7-sulfonimidamide] |  | 43 |  | 53 | > 2 | < 100 |  |  |
| C[C@]1(CO)Cn2ncc([S@](N)(=O)=NC(=O)Nc3c4c(c(F)c5c3CC5)CC4)c2O1 [Compound 6, (R,2R)-N′-((7-fluorotricyclo[6.2.0.0^3,6]deca-1,3(6),7-trien-2-yl)carbamoyl)-2-(hydroxymethyl)-2-methyl-2,3-dihydropyrazolo[5,1-b]oxazole-7-sulfonimidamide] |  | 55 |  | 48 | 1.8 | < 100 | > 1.5 |  |
| CC1(C)COc2c(S(N)(=O)=NC(=O)Nc3c4c(cc5c3CC5)CC4)cnn2C1 (stereo not shown) [XE] |  | 520 | 63 | 126 |  |  |  |  |
| COC1CN(C2COc3c(S(N)(=O)=NC(=O)Nc4c5c(cc6c4CC6)CC5)cnn3C2)C1 (stereo not shown) [XP] |  | 130 |  | 33 | 1.9 |  |  |  |
| C[C@]1(CO)Cn2ncc([S@](N)(=O)=NC(=O)Nc3c4c(c(F)c5c3CC5)CC4)c2O1 (single isomer, unassigned) [Compound G] | 1.1 |  |  |  |  |  |  |  |
| CC1(C)Cn2ncc(S(N)(=O)=NC(=O)Nc3c4c(cc5c3CC5)CC4)c2O1 (stereo not shown) [XH] |  | 130 | 81 | 85 | 1.9 |  |  |  |
| CC1(C)Cn2ncc(S(N)(=O)=NC(=O)Nc3c4c(cc5c3CC5)CCC4)c2O1 (stereo not shown) [XI] |  | 240 | 90 | 39 |  |  |  |  |
| CC1(CO)Cn2ncc(S(N)(=O)=NC(=O)Nc3c4c(cc5c3CCC5)CCC4)c2O1 (stereo not shown) [XN] |  |  | 6.2 | 36 | 1.2 |  |  |  |
| CC1(C)Cn2ncc(S(N)(=O)=NC(=O)Nc3c4c(cc5c3CCC5)CCC4)c2O1 (stereo not shown) [XB] |  | 290 | 74 | 91 | 0.87 |  |  |  |
| NS(=O)(=NC(=O)Nc1c2c(cc3c1CC3)CC2)c1cnn2c1OCC2 (stereo not shown) [XF] |  | 3300 | 15 | 54 |  |  |  |  |
| CNC1COc2c(S(N)(=O)=NC(=O)Nc3c4c(c(F)c5c3CC5)CC4)cnn2C1 (stereo not shown) [XO] |  | 110 | 3.3 | 32 | 1.3 |  | < 1 |  |

Continued, values first:

| IC50 [1] [nM] | IC90 [2, 4] [nM] | % PXR activation @ 10 μM (hPXR nuclear receptor) [%] | bioavailability [3] [%] | half-life [3, 5] [h] | IC90 ([2]; Homo sapiens) [nM] | half-life ([3]; read-out: half life) [h] | IC90 ([2]; LPS 200 ng/mL, ATP 1.75 mM, IL-1β) [nM] | SMILES |
| --- | --- | --- | --- | --- | --- | --- | --- | --- |
|  | 2400 | 2.4 |  |  |  |  |  | NS(=O)(=NC(=O)Nc1c2c(cc3c1CCC3)CCC2)c1cnn2c1OCC(O)C2 (stereo not shown) [XM] |
|  |  | 4 |  |  |  |  | 560 | CC1(CO)COc2c(S(N)(=O)=NC(=O)Nc3c4c(cc5c3CCC5)CCC4)cnn2C1 (single isomer, unassigned) [XK] |
|  | 770 | 25 | 28 |  |  |  |  | C[C@@H]1COc2c(S(N)(=O)=NC(=O)Nc3c4c(cc5c3CCC5)CCC4)cnn2C1 (single isomer, unassigned) [XG] |
|  | 480 | 61 | 45 | 2 |  |  |  | CC1(C)COc2c(S(N)(=O)=NC(=O)Nc3c4c(cc5c3CCC5)CCC4)cnn2C1 (stereo not shown) [XA] |
|  | 390 | 3.7 |  |  |  |  |  | NS(=O)(=NC(=O)Nc1c2c(cc3c1CCC3)CCC2)c1cnn2c1OC(CO)C2 (stereo not shown) [XL] |
|  | 3400 | 26 |  |  |  |  |  | NS(=O)(=NC(=O)Nc1c2c(cc3c1CC3)CCC2)c1cnn2c1OCCC2 (stereo not shown) [XC] |
|  | 1700 | 22 |  |  |  |  |  | NS(=O)(=NC(=O)Nc1c2c(cc3c1CCC3)CCC2)c1cnn2c1OCCC2 (stereo not shown) [XD] |
|  | 700 | 2.4 |  |  |  |  |  | CC1(CO)COc2c(S(N)(=O)=NC(=O)Nc3c4c(cc5c3CCC5)CCC4)cnn2C1 (single isomer, unassigned) [XJ] |
